Measured values from ChEMBL document CHEMBL6153126, “Design, Synthesis, and Activity Evaluation of Novel Bifenamide Dual-Target Antibacterial Inhibitors and Carrier Based on Infectious Microenvironment” (J Med Chem, 2025).
Activity calls are given as the source filed them. The rule behind the calls is not given here.

Legend:
Klebsiella pneumoniae [1] = assay: Antimicrobial activity against Klebsiella pneumoniae ATCC 13883 assessed as inhibition of microbial growth incubated for 64 hrs by broth-microdilution assay; assay type: functional
Escherichia coli = assay: Antimicrobial activity against Escherichia coli ATCC 8739 assessed as inhibition of microbial growth incubated for 64 hrs by broth-microdilution assay; assay type: functional
Salmonella typhimurium = assay: Antimicrobial activity against Salmonella typhimurium ATCC 14028 assessed as inhibition of microbial growth incubated for 64 hrs by broth-microdilution assay; assay type: functional, Salmonella enterica subsp. enterica serovar Typhimurium; settings: Salmonella enterica
Pseudomonas aeruginosa [2] = assay: Antimicrobial activity against Pseudomonas aeruginosa ATCC 9027 assessed as inhibition of microbial growth incubated for 64 hrs by broth-microdilution assay; assay type: functional
Klebsiella pneumoniae [3] = assay: Antimicrobial activity against Klebsiella pneumoniae ATCC 13883 assessed as inhibition zone; assay type: functional
Pseudomonas aeruginosa [4] = assay: Antimicrobial activity against Pseudomonas aeruginosa ATCC 9027 assessed as inhibition zone; assay type: functional; settings: time 64 hrs
[5] = target: T1, UDP-3-O-acyl-N-acetylglucosamine deacetylase (Escherichia coli K-12, UniProt P0A725); assay: Binding affinity to Escherichia coli LpxC assessed as dissociation constant by SPR analysis
T1 sequence (P0A725 whole entry): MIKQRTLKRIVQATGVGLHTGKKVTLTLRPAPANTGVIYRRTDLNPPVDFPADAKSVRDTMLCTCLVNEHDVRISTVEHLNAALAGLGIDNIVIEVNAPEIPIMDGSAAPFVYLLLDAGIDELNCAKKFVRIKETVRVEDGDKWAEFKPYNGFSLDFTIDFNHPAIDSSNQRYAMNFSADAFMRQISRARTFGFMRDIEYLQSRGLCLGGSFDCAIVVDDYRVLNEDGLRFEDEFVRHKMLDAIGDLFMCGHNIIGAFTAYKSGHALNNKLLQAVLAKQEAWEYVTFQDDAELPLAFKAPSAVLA

[6] = Binding affinity to PD-L1 (unknown origin) assessed as dissociation constant by SPR analysis; set-up: species or system Homo sapiens
[7] = target: Programmed cell death 1 ligand 1 (Homo sapiens) (UniProt Q9NZQ7); assay: Binding affinity to PD-L1 (unknown origin) assessed as Change in enthalpy by ITC analysis
Klebsiella pneumoniae [8] = assay: Antibacterial activity against Klebsiella pneumoniae ATCC 13883 infected in Kunming mouse model assessed as reduction in alveolar space in lung at 2 mg/kg, iv in presence of biphenyl isopropyl ester by H and E staining based analysis; assay type: functional, organism-based
HeLa = assay: Cytotoxicity against human HeLa cells incubated for 24 hrs by CCK-8 assay; assay type: functional, cell-based
[9] = target: Programmed cell death protein 1/Programmed cell death 1 ligand 1 (Homo sapiens, UniProt Q9NZQ7); assay: Inhibition of PD-1/PD-L1 (unknown origin) protein-protein interaction preincubated for 15 mins followed by PD-1-Eu addition and measured after 90 mins by TR-FRET assay; assay type: protein-complex assay
A549 = assay: Cytotoxicity against human A549 cells incubated for 24 hrs by CCK-8 assay; assay type: functional, cell-based; settings: A549, 24 h
[10] = target: T1, UDP-3-O-acyl-N-acetylglucosamine deacetylase; assay: Inhibition of Escherichia coli LpxC
[11] = target: Programmed cell death 1 ligand 1 (Homo sapiens) (UniProt Q9NZQ7); assay: Binding affinity to PD-L1 (unknown origin) assessed as association constant at equilibrium by ITC analysis
Klebsiella pneumoniae [12] = assay: Induction of intracellular ROS accumulation in Klebsiella pneumoniae ATCC 13883 incubated for 12 hrs by fluorescence microscopic analysis; assay type: functional, organism-based
Klebsiella pneumoniae [13] = assay: Antimicrobial activity against Klebsiella pneumoniae ATCC 13883 assessed as increase in percentage of bacterial cells by flow cytometry analysis; assay type: functional, organism-based
Klebsiella pneumoniae [14] = assay: Bactericidal activity against Klebsiella pneumoniae ATCC 13883 assessed as reduction in survival rate by colony counting method; assay type: functional
Klebsiella pneumoniae [15] = assay: Antibacterial activity against Klebsiella pneumoniae ATCC 13883 infected in Kunming mouse model assessed as reduction in alveolar space in lung at 2 mg/kg, iv by H and E staining based analysis; assay type: functional, organism-based
Klebsiella pneumoniae [16] = assay: Antibacterial activity against Klebsiella pneumoniae ATCC 13883 infected in Kunming mouse model assessed as reduction in bacterial proliferation at 2 mg/kg, iv in presence of biphenyl isopropyl ester; assay type: functional, organism-based
[17] = Initial plasma concentration in rat at 2 mg/kg, iv measured upto 24 hrs by LC-MS/MS analysis; assay type: ADME, organism-based; settings: in vivo, iv, 2 mg/kg, 24 h
[18] = Clearance in rat at 2 mg/kg, iv measured upto 24 hrs by LC-MS/MS analysis; assay type: ADME, organism-based; settings: in vivo
[19] = Volume of distribution at steady state in rat at 2 mg/kg, iv measured upto 24 hrs by LC-MS/MS analysis; assay type: ADME, organism-based; settings: in vivo, iv, 2 mg/kg, 24 h
[20] = Half life in rat at 2 mg/kg, iv measured upto 24 hrs by LC-MS/MS analysis; assay type: ADME, organism-based; settings: in vivo
[21] = AUC (0 to t) in rat at 2 mg/kg, iv measured upto 24 hrs by LC-MS/MS analysis; assay type: ADME, organism-based; settings: in vivo

Sequence of Programmed cell death 1 ligand 1 (Homo sapiens) (Q9NZQ7 whole entry): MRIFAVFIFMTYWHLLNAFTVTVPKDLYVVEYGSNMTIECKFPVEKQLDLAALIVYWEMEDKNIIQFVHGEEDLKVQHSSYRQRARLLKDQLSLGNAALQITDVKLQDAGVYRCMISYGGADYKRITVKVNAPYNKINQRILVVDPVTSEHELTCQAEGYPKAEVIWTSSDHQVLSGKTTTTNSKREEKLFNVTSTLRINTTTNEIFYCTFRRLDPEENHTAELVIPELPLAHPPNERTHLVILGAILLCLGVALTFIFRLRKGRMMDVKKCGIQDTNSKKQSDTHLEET
Sequence of Programmed cell death protein 1/Programmed cell death 1 ligand 1 (Q15116 whole entry): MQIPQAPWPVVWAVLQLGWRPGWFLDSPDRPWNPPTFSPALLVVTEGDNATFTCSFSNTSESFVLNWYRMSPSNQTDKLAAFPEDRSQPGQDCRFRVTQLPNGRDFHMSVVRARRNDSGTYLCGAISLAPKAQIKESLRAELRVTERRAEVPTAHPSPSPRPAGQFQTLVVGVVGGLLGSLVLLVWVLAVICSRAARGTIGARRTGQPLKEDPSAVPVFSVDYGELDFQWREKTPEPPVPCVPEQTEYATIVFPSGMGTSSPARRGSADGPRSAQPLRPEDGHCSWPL
Sequence of Programmed cell death protein 1/Programmed cell death 1 ligand 1 (Q9NZQ7 whole entry): as the sequence (Q9NZQ7 whole entry) above

SMILES | MIC50 (Klebsiella pneumoniae [1]) [µg/mL] | MIC50 (Escherichia coli) [µg/mL] | MIC50 (Salmonella typhimurium) [µg/mL] | MIC50 (Pseudomonas aeruginosa [2]) [µg/mL] | inhibition zone (IZ) (Klebsiella pneumoniae [3]) | inhibition zone (IZ) (Pseudomonas aeruginosa [4]) | also measured
COc1cc(OCc2cccc(-c3ccccc3)c2C)cc(OC)c1CNC(C(=O)NO)C(C)O (configuration not stated) | 1 | 2 | 4 | 1 | 9.4 mm | 8.9 mm | –
Cc1c(COc2cccc(CNC(C(=O)NO)C(C)C)c2)cccc1-c1ccccc1 (configuration not stated) | 4 | 8 | 4 | ≥ 16 | 8.6 mm | 6.6 mm | –
CCn1cc(C(=O)O)c(=O)c2cc(F)c(N3CCNCC3)cc21 [NORFLOXACIN] | 1 | 0.5 | 2 | 1 | 15.9 mm | 14.8 mm | –
Cc1c(CN2CCC(C(=O)NC(C(=O)NO)C(C)O)CC2)cccc1-c1ccccc1 (configuration not stated) | 0.5 | 2 | 1 | 1 | 15.8 mm | 14.1 mm | –
CC(C)OC(=O)[C@@H](CO)NCc1cc(Cl)c(OCc2cccc(-c3ccccc3)c2Br)cc1OCc1cccnc1 | – | – | – | – | – | – | Kd [5]: 0.000401 µM; Kd [6]: 0.000254 µM; deltaH [7]: 1.13 kcal/mol; Activity (Klebsiella pneumoniae [8]): Active
COc1cc(OCc2cccc(-c3ccccc3)c2C)cc(OC)c1CNC(C(=O)NO)C(C)C (configuration not stated) | ≥ 16 | 4 | ≥ 16 | 8 | <=6 mm | 6.3 mm | –
Cc1c(CN2CCC(C(=O)NC(C(=O)NO)C(C)C)CC2)cccc1-c1ccccc1 (configuration not stated) | 4 | 2 | 4 | 8 | 9.5 mm | <=6 mm | –
Cc1c(COc2cccc(CNC(CO)C(=O)NO)c2)cccc1-c1ccccc1 (configuration not stated) | 0.5 | 0.5 | 1 | 0.5 | 15.2 mm | 13.8 mm | IC50 (HeLa): > 50 µM; IC50 [9]: 0.109 µM; IC50 (A549): > 50 µM; IC50 [10]: 8.4 µM; Kd [5]: 0.000873 µM; Kd [6]: 0.000135 µM; Ka [11]: 4.17 10^5/M; deltaH [7]: 0.995 kcal/mol; Activity (Klebsiella pneumoniae [12]): Active; Activity (Klebsiella pneumoniae [13]): Active
Cc1c(CN2CCC(C(=O)NC(CO)C(=O)NO)CC2)cccc1-c1ccccc1 (configuration not stated) | 2 | ≥ 16 | 8 | 4 | 11.6 mm | 10.1 mm | –
Cc1c(CN2CCC(C(=O)N3CCCC3C(=O)NO)CC2)cccc1-c1ccccc1 (configuration not stated) | 0.5 | 1 | 2 | 1 | 14.4 mm | 12.6 mm | IC50 (HeLa): > 50 µM; IC50 [9]: 0.318 µM; IC50 (A549): > 50 µM; IC50 [10]: 4.3 µM; Kd [5]: 0.000873 µM; Kd [6]: 0.000135 µM; Ka [11]: 4.59 10^5/M; deltaH [7]: 0.735 kcal/mol; Activity (Klebsiella pneumoniae [12]): Active; Activity (Klebsiella pneumoniae [13]): Active
C[C@H](O)[C@H](NC(=O)c1ccc(C#Cc2ccc(CN3CCOCC3)cc2)cc1)C(=O)NO | 0.5 | 2 | 0.5 | 1 | 14.2 mm | 13.5 mm | Activity (Klebsiella pneumoniae [12]): Active; Activity (Klebsiella pneumoniae [13]): Active; Activity (Klebsiella pneumoniae [14]): 83%; Activity (Klebsiella pneumoniae [15]): Active; Activity (Klebsiella pneumoniae [16]): Active; C0 [17]: 332 ng/mL; clearance [18]: 75.6 mL/min/kg; Vdss [19]: 1.42 L/kg; half-life [20]: 32.4 min; AUC(0-t) at 24 h [21]: 289 ng·h/mL
Cc1c(COc2cccc(CN3CCCC3C(=O)NO)c2)cccc1-c1ccccc1 (configuration not stated) | ≥ 16 | ≥ 16 | 4 | 4 | 7.2 mm | <=6 mm | –
COc1cc(OCc2cccc(-c3ccccc3)c2C)cc(OC)c1CN1CCCC1C(=O)NO (configuration not stated) | 1 | 2 | ≥ 16 | 1 | 11.3 mm | 9.1 mm | –
COc1cc(OCc2cccc(-c3ccccc3)c2C)cc(OC)c1CNC(CO)C(=O)NO (configuration not stated) | 8 | ≥ 16 | 4 | 4 | <=6 mm | 8.1 mm | –
